Measurements published in US4751305A, “2-heterocyclobenzo[B][1,6]naphthyridines as inhibitors of interleukin” (American Home Products Corporation, priority 1987, dated 1988).

Test system: IL 1-induced release of neutral protease from rabbit articular chondrocytes
Assay: inhibition of the IL 1-induced release of neutral protease from rabbit articular chondrocytes (azocoll neutral protease assay)
Type: cell-based
Settings: Oryctolagus cuniculus, Chondrocyte, compound 10 min before purified human IL 1, 24 h, read-out: % Inhibition (I.S.D.)
Method: The ability of the compounds of the inventions to inhibit interleukin 1 is measured by the ability of the test compounds to inhibit the IL 1-induced release of neutral protease from rabbit articular chondrocytes.
This assay is carried out as follows:
Isolation of rabbit chondrocytes:
Male New Zealand White rabbits are anesthetized with 50 mg/kg of ketamine (i.m.) and killed by an intracardiac injection of 3 mls. of Nembutal. The knee joints of both legs are resected and the articular surfaces are exposed. Cartilage slices are obtained using a scalpel and are placed in a tissue culture dish (100 mm diameter) containing 10 mls of Hank's balanced salt solution (HBSS). The chondrocytes within the cartilage slices are then liberated by a series of enzyme digestions. The slices are incubated for 10 min. at 37° C. in 0.05% hyaluronidase (Sigma H-3884), rinsed with HBSS and incubated with 0.2% trypsin (Sigma T-2395) for 10 min. at 37° C. The slices are rinsed again and incubated for 10 mins. at 37° C. with 1.2% collagenase (Sigma C-5138). The slices are then rinsed again with HBSS and resuspended in 10 ml of Ham's F-12 medium containing 10% fetal bovine calf serum (FCS) and 0.2% collagenase and incubated overnight at 37° C. in a 5% CO2 incubator. The next day, the medium containing the digested cartilage fragments and liberated chondrocytes is transferred to a 15 ml centrifuge tube and the cells are collected by centrifugation and washed twice and resuspended in Ham's F-12 medium. The cells are then plated into 24-well tissue culture plates (2×10^5 cells/well) and incubated at 37° C. until confluent (usually 4-6 days).
Stimulation of chondrocytes and drug treatment:
The confluent chondrocytes are rinsed twice with serum-free Ham's F-12 medium and 1 ml is added to each well. Fifty $1 of purified human IL 1(100 Units/ml; Genzyme Corporation, Boston, MA) is then added to stimulate these cells to secrete neutral protease. To measure drug effects, the cells are treated with test compound 10 min. prior to addition of IL 1. The standard screening dose is 10 $M. Twenty-four hours after IL 1 stimulation, supernatant fluids are collected and assayed for neutral protease activity.
The neutral protease activity of chondrocyte supernatant fluids is determined by their ability to degrade an insoluble protease substrate, azocoll (Sigma). Supernatants are treated for 10 min. at room temperature with 350 $M p-aminophenyl-murcuric acetate to activate the latent enzyme. Three hundred $1 of supernatant is then mixed with 500 $1 of a 20 mg/ml suspension of azocoll and incubated at 37° C. for 18-24 hrs. with gentle rocking. The mixtures are centrifuged and the amount of substrate hydrolyzed is determined by measuring the absorbance of the supernatant at 520 nm.
Drug effects are calculated as the % change in enzyme activity (absorbance)by supernatants from drug-treated chondrocytes relative to enzyme activity of supernatants from vehicle-treated chondrocytes as follows: [formula]

SMILES | inhibition at 10 µM [%] | inhibition at 5 µM (dose 5 μM) [%]
Clc1ccc2c(Cl)c3c(nc2c1)CCN(c1ncccn1)C3 [Example 1, 7,10-Dichloro-1,2,3,4-tetrahydro-2-(2-pyrimidinyl)benzo[b][1,6]naphthyridine] | 34 ± 8 | 
Clc1ccc2c(Cl)c3c(nc2c1)CCN(c1ccc2ccccc2n1)C3 [Example 3, 7,10-Dichloro-1,2,3,4-tetrahydro-2-(2-quinolinyl)benzo[b][1,6]naphthyridine] | ≤ 20 | 
N#Cc1ccc(N2CCc3nc4cc(Cl)ccc4c(Cl)c3C2)nc1 [Example 4, 6-(7,10-Dichloro-3,4-dihydrobenzo[b][1,6]naphthyridin-2(1H)-yl)-3-pyridine-carbonitrile, hemihydrate] | 94 | 83
Clc1ccc2c(NNc3ccccc3)c3c(nc2c1)CCN(c1cnccn1)C3 [Example 5, 7-Chloro-1,2,3,4-tetrahydro-10-(2-phenylhydrazino)-2-(2-pyrazinyl)benzo[b][1,6]naphthyridine] | 85 ± 5 | 
